In patent US8609087B2, “Compounds and methods for identifying compounds which inhibit a new class of aspartyl proteases” (priority 1999, dated 2013):
Several values for one entry are separate records, joined by “and”; a condition that tells them apart may be missing. Equal entries are not always repeated. Entries after “also recorded” stand apart in the source; their conditions may differ. Square brackets hold non-standard residues; d marks the D form. Peptide text beside a SMILES is read from it. * marks the point of attachment. Sta = CC(C)C[C@H](N)[C@@H](O)CC(=O)O; Isovaleryl = CC(C)CC(=O)*; Nle = CCCC[C@H](N)C(=O)O

Biological target: TcpJ type 4 prepilin peptidase (TFPP) (Vibrio cholerae serotype O1, UniProt A5F385, P151Q/Q149P/S169T)
Assay type: biochemical

| Compound | % Cleavage | Effect on TcpJ peptidase activity (in words) |
| --- | --- | --- |
| O=c1oc(Cl)c(Cl)c2ccccc12 [3,4-DCI] | 89% and 54% |  |
| CC(C)C[C@H](NC(=O)[C@@H](O)[C@H](N)Cc1ccccc1)C(=O)O [Bestatin] | 81% |  |
| CCCC[C@@H](C=O)NC(=O)[C@H](CC(C)C)NC(=O)[C@H](CC(C)C)NC(C)=O [Calpain inhibitor I] (Ac-Leu-Leu-[Nle]-aldehyde) | 87% |  |
| CC(=O)N[C@@H](CC(C)C)C(=O)N[C@@H](CC(C)C)C(=O)N[C@H](C=O)CCCNC(=N)N [Leupeptin] | 85% |  |
| CCN1C(=O)C=CC1=O [NEM] | 30% | partial effects |
| O=S(=O)(F)Cc1ccccc1 [PMSF] | 98% and 68% | partial effects |
| Cl.NCCc1ccc(S(=O)(=O)F)cc1 [Pefabloc SC] | 62% and 50% | partial effects |
| CC(C)CC(=O)N[C@H](C(=O)N[C@H](C(=O)N[C@@H](CC(C)C)[C@@H](O)CC(=O)N[C@@H](C)C(=O)N[C@@H](CC(C)C)[C@@H](O)CC(=O)O)C(C)C)C(C)C [Pepstatin] (Isovaleryl-VV[Sta]A[Sta]-OH) | 95% and 92% and 74% | complete insensitivity; also recorded: completely resistant |
| CC(C)C[C@H](NP(=O)(O)O[C@@H]1O[C@@H](C)[C@H](O)[C@@H](O)[C@H]1O)C(=O)N[C@@H](Cc1c[nH]c2ccccc12)C(=O)O [Phosphoramidon] | 89% |  |
| Aprotinin | 100% |  |
